In patent US20110098177A1, “METHODS AND COMPOSITIONS OF PLANT MICRONUTRIENTS” (NOVUS INTERNATIONAL INC., priority 2006, published 2011):

Columns and labels:
Assay type in all cases: in vivo
Settings in all cases: in vivo
Aristotle bell pepper = test system: Aristotle bell pepper
Method: (§1) The following experiments were performed in a green house during the fall of 2007 at GCREC, Balm, University of Florida. Fifteen products, at 3 different application rates were examined. The plot size was 2-gallon pots. Crop set-up, procedures and variables were as follows.
(§2) Transplants of ‘Florida-47’ tomato and ‘Aristotle’ bell pepper plants in the 4-true leaf stage (about 6 inches tall) were planted in 2-gal pots on Aug. 27, 2007. Pots were filled with a commercially available planting medium. This medium was selected based on the mineral composition of the products to be applied without providing significant nutritional inputs to the crops. Irrigation was provided with drip lines delivering between 0.50 and 0.33 gal/day/pot for tomato and bell pepper, respectively, and the crops were irrigated three times per day. No foliar pesticides were necessary.
(§3) There were four control treatments corresponding to each target micronutrient in which non-Fe, non-Mn, non-Zn or non-Cu pots received all other essential nutrients under non-limiting conditions.
(§4) Treatments were applied at three rates (high, medium and low) obtained from the estimated concentration of Zn, Fe, Cu, and Mn foliarly-applied in tomato and bell pepper in field situations (Table 1). Products were weighed and dissolved in 200 ml of deionized water with a non-ionic surfactant and applied to the newly-matured open leaves of each crop at 3 and 7 weeks after transplant (WAT). Treated pots were isolated during application to avoid cross-contamination of other treatments.
(§5) Medium nutrient concentration was determined 1 week before treatment. The mineral composition of the medium was 26.8 ppm NH4—N, 49 ppm NO3—N, 15.8 ppm P, 91.2 ppm K, 82.3 ppm Ca, 58.2 ppm Mg, 23.9 ppm Na, 125.6 ppm S, 1.33 ppm Fe, 0.39 ppm Mn, 0.35 ppm Zn, 0.05 pp, Cu, 0.04 ppm B, 0 ppm Mo, 0.73 ppm Al, and 12.1 ppm Si. The pH of the medium was 5.36 and the electric conductivity was 1.38 mS/cm. The foliar tissue analysis was performed at 6 WAT and the concentration of N, P, K, Mg, Ca, S, B, Zn, Mn, Fe, and Cu was determined by a commercial laboratory. Plant toxicity was determined at 4 WAT by using a 0-10 visual scale, where 0=no visible damage and 10=total plant death. Marketable fruit weight was collected 2 times in bell pepper and 4 times in tomato following USDA standards.
(§6) Data were analyzed using a general linear model, and means were separated using orthogonal contrasts at the 5% significance level.

Florida-47 tomato = test system: Florida-47 tomato
Method: as §1, §2, §3, §4, §5, §6

Tygress tomato plants [1] = assay: Foliar nutrient concentration at 6 WAT, open-field tomato (Examples 7-10)
Method: (§7) The following experiments were performed in open-field plots during the spring of 2008 at GCREC, Balm, University of Florida. Four products delivering Zn (BIOX-Z), Mn (BIOX-M), Cu (BIOX-Cu), and Fe (BIOX-Fe) were compared to other micronutrient supplement formulations in tomato and bell pepper plants.
(§8) The plot sizes for the tomato plants were 30-ft plots (15 plants per plot) and 15-ft plots were used for the bell pepper plants (30 plants per plot). Crop set-up, procedures and variables were as follows.
(§9) Transplants of ‘Tygress’ tomato plants and ‘Patriot’ bell pepper plants in the 4-true leaf stage (about 6 inches tall) were planted in raised beds in open-field plots. The cross-section of each raised bed was 28 inches wide at the top, 32 inches wide at the base, and 8 inches tall. Irrigation and non-micronutrient fertilizer were provided daily through two drip lines per bed (0.45 gal/100 ft bed/min) at recommended rates for tomato and bell pepper production in Florida. […] The height of the plants for each of the treatment groups was measured at 3 weeks after transplantation (WAT), just prior to treatment with the experimental foliar fertilizers.
(§10) All foliar fertilizers except BIOX-CM were applied to the various treatment groups at 3 weeks after transplantation (WAT) and again at 5 WAT. The BIOX-CM treatment was applied at 4 and 5 WAT. The working water volume was 60 gal/acre and a non-ionic surfactant (Ad-Spray 80) was added in the amount of 2 pints/100 gal water. All plots were sprayed with sprayers pressurized at 25 psi and the canopies of both crops were covered with the micronutrient solutions. Treated plots were isolated during foliar fertilizer application to avoid the cross-contamination of other treatments on adjoining plots.
(§11) Leaf samples were collected from the most recent mature leaves from each plant at 6 WAT (2 weeks after initial treatment). Foliar tissue analysis was performed by a commercial laboratory to determine the concentration of N, P, K, Mg, Ca, B, Zn, Mn, Fe, and Cu. Tomato marketable fruit weights were collected at 10 and 12 WAT, and the fruits were graded according to USDA standards. Pepper marketable fruit weights were determined beginning at 5 WAT over 5 weekly harvests. Fruit mineral analysis (N, P, K, Mg, Ca, B, Zn, Mn, Fe, and Cu) was performed on samples from the tomato harvest.
(§12) The experimental design was a randomized complete block design with 5 replications for each treatment. All comparison data were analyzed using a general linear model and the means of each treatment were separated with a Fisher's protected LSD test at the 5% significance level.

[2] = test system: Patriot bell pepper plants; assay: Foliar nutrient concentration at 6 WAT, open-field bell pepper (Examples 7-10)
Method: as §7, §8, §9, §10, §11, §12

Tygress tomato plants [3] = assay: Marketable yield, open-field tomato (Examples 7-10)
Method: as §7, §8, §9, §10, §11, §12

[4] = test system: Patriot bell pepper plants; assay: Marketable yield, open-field bell pepper (Examples 7-10)
Method: as §7, §8, §9, §10, §11, §12

Tygress tomato plants [5] = assay: Nutrient concentration of tomato fruits at 10 WAT, open field (Examples 7-10)
Method: as §7, §8, §9, §10, §11, §12

In the case of `NCC(=O)[O-].NCC(=O)[O-].[Zn+2]` [BIOX-GZ, zinc glycinate], the Pepper toxicity (Aristotle bell pepper) is reported as 0, the Tomato toxicity (Florida-47 tomato) is reported as 0 and the “Foliar B concentration of tomato plants” value (Tygress tomato plants [1]) is reported as 44 ppm. The “Foliar Ca concentration of tomato plants” value (Tygress tomato plants [1]) was 1.8%, the “Foliar Cu concentration of tomato plants” value (Tygress tomato plants [1]) was 482 ppm and the “Foliar Fe concentration of tomato plants” value (Tygress tomato plants [1]) was 94 ppm. The “Foliar K concentration of tomato plants” value (Tygress tomato plants [1]) was 5.0%, the “Foliar Mg concentration of tomato plants” value (Tygress tomato plants [1]) was 0.61% and the “Foliar Mn concentration of tomato plants” value (Tygress tomato plants [1]) was 278 ppm. The “Foliar N concentration of tomato plants” value (Tygress tomato plants [1]) was 4.6%, the “Foliar P concentration of tomato plants” value (Tygress tomato plants [1]) was 0.22% and the “Foliar Zn concentration of tomato plants” value (Tygress tomato plants [1]) was 369 b ppm. For the same compound, the “Foliar B concentration of bell pepper plants” value [2] was 59 ppm, the “Foliar Ca concentration of bell pepper plants” value [2] was 4.2% and the “Foliar Cu concentration of bell pepper plants” value [2] was 429 ppm. For the same compound, the “Foliar Fe concentration of bell pepper plants” value [2] was 118 ppm, the “Foliar K concentration of bell pepper plants” value [2] was 3.4% and the “Foliar Mg concentration of bell pepper plants” value [2] was 0.49%. The “Foliar Mn concentration of bell pepper plants” value [2] was 282 ppm, the “Foliar N concentration of bell pepper plants” value [2] was 4.4% and the “Foliar P concentration of bell pepper plants” value [2] was 0.24%. For the same compound, the “Foliar Zn concentration of bell pepper plants” value [2] was 145 a ppm, the “Foliar Zn concentration of bell pepper plants compared to control, statement” value [2] was “significantly higher foliar concentration of Zn” and the “Marketable yield, Tomato” value (Tygress tomato plants [3]) was 16.8 ton/acre. The “Tomato marketable yield compared to control, statement” value (Tygress tomato plants [3]) was “significantly higher than the control tomato harvest”, the “Marketable yield, Bell Pepper” value [4] was 6.3 ton/acre and the “B concentration of tomato fruits” value (Tygress tomato plants [5]) was 23 ppm. For the same compound, the “Ca concentration of tomato fruits” value (Tygress tomato plants [5]) was 0.2%, the “Cu concentration of tomato fruits” value (Tygress tomato plants [5]) was 23 ppm and the “Fe concentration of tomato fruits” value (Tygress tomato plants [5]) was 87 ppm. For the same compound, the “K concentration of tomato fruits” value (Tygress tomato plants [5]) was 7.8%, the “Mg concentration of tomato fruits” value (Tygress tomato plants [5]) was 0.37% and the “Mn concentration of tomato fruits” value (Tygress tomato plants [5]) was 43 ppm. For the same compound, the “N concentration of tomato fruits” value (Tygress tomato plants [5]) was 4.3%, the “P concentration of tomato fruits” value (Tygress tomato plants [5]) was 0.61% and the “Zn concentration of tomato fruits” value (Tygress tomato plants [5]) was 379 ppm.
In the case of iron glycinate [BIOX-GF], the Pepper toxicity (Aristotle bell pepper) is reported as 0, the Tomato toxicity (Florida-47 tomato) is reported as 0 and the “Foliar B concentration of tomato plants” value (Tygress tomato plants [1]) is reported as 21 ppm. For the same compound, the “Foliar Ca concentration of tomato plants” value (Tygress tomato plants [1]) was 0.2%, the “Foliar Cu concentration of tomato plants” value (Tygress tomato plants [1]) was 22 ppm and the “Foliar Fe concentration of tomato plants” value (Tygress tomato plants [1]) was 85 ppm. For the same compound, the “Foliar K concentration of tomato plants” value (Tygress tomato plants [1]) was 8.5%, the “Foliar Mg concentration of tomato plants” value (Tygress tomato plants [1]) was 0.38% and the “Foliar Mn concentration of tomato plants” value (Tygress tomato plants [1]) was 42 ppm. The “Foliar N concentration of tomato plants” value (Tygress tomato plants [1]) was 4.3%, the “Foliar P concentration of tomato plants” value (Tygress tomato plants [1]) was 0.71% and the “Foliar Zn concentration of tomato plants” value (Tygress tomato plants [1]) was 332 ppm. The “Foliar nutrient concentration: B” value [2] was 43 ppm, the “Foliar nutrient concentration: Ca” value [2] was 1.8% and the “Foliar nutrient concentration: Cu” value [2] was 453 ppm. For the same compound, the “Foliar nutrient concentration: Fe” value [2] was 305 ppm, the “Foliar nutrient concentration: K” value [2] was 5.7% and the “Foliar nutrient concentration: Mg” value [2] was 0.58%. For the same compound, the “Foliar nutrient concentration: Mn” value [2] was 266 ppm, the “Foliar nutrient concentration: N” value [2] was 5.0% and the “Foliar nutrient concentration: P” value [2] was 0.21%. The “Foliar nutrient concentration: Zn” value [2] was 322 ppm, the “Marketable yield, Tomato” value (Tygress tomato plants [3]) was 18.5 a ton/acre and the “Tomato marketable yield compared to control, statement” value (Tygress tomato plants [3]) was “significantly higher tomato marketable yield compared to control”. For the same compound, the “Marketable yield, Bell Pepper” value [4] was 7.0 ton/acre, the “Nutrient concentration of tomato fruits: B” value (Tygress tomato plants [5]) was 21 ppm and the “Nutrient concentration of tomato fruits: Ca” value (Tygress tomato plants [5]) was 0.2%. For the same compound, the “Nutrient concentration of tomato fruits: Cu” value (Tygress tomato plants [5]) was 22 ppm, the “Nutrient concentration of tomato fruits: Fe” value (Tygress tomato plants [5]) was 85 ppm and the “Nutrient concentration of tomato fruits: K” value (Tygress tomato plants [5]) was 8.5%. For the same compound, the “Nutrient concentration of tomato fruits: Mg” value (Tygress tomato plants [5]) was 0.38%, the “Nutrient concentration of tomato fruits: Mn” value (Tygress tomato plants [5]) was 42 ppm and the “Nutrient concentration of tomato fruits: N” value (Tygress tomato plants [5]) was 4.3%. For the same compound, the “Nutrient concentration of tomato fruits: P” value (Tygress tomato plants [5]) was 0.71% and the “Nutrient concentration of tomato fruits: Zn” value (Tygress tomato plants [5]) was 332 ppm.
